Source: patent publication US7855076B2, “Use of discoidin domain receptor 1 (DDR1) and agents that affect the DDR1/collagen pathway” (The United States of America as represented by the …, priority 2002, dated 2010)

Columns and labels:
Format in all cases: cell-based, human
DDR1 mRNA = DDR1 mRNA expression in PBMC by Northern blotting; details: 8 hours, TNF-α 5 ng/ml, IL-1β 10 ng/ml, IFN-γ 50 U/ml, GM-CSF 10 ng/ml, LPS 1 μg/ml, PHA 5 μg/ml
Method: PMN and PBMC were maintained at a density of 5×10^6 cells/ml in the complete medium in six-well tissue culture cluster (Coster, Cambridge, Mass.; 3 ml/well). Total RNA was extracted from each culture by using TRIZOL® Reagent. PolyA mRNA was purified on Oligotex columns (Qiagen, Valencia, Calif.). Northern blot analysis was performed as described (Yoshimura, J. Immunol. 150:5025, 1993), except that ULTRAhyb (Ambion) was used. A human DDR1 cDNA (757-bp) was obtained by PCR from a U-105 human glioblastoma cell line cDNA library and was ligated into the EcoRI/HindIII site of the pBluescript (Stratagene, La Jolla, Calif.). The sense primer was 5′-[…]-3′ (SEQ ID NO: 2; corresponding to residues between 68 and 87 in the nucleotide sequence of the trkE cDNA, GenBank accession number X74979) and the antisense primer was 5′-[…]-3′ (SEQ ID NO: 3; corresponding to residues between 805 and 824 in the nucleotide sequence of the trkE cDNA).
Freshly isolated PBMC expressed only a low level of DDR1 mRNA. The expression level was increased about eightfold when the cells were incubated in either RPMI 1640 or RPMI 1640 containing 10% FCS.

THP-1 cells = experiment: Adherence of THP-1 cells to coated plates; details: DDR1a- or DDR1b-overexpressing THP-1 cells, 30 minutes
Method: 5×10^5 cells/ml were cultured on either BSA (10 mg/ml)- or collagen (20 μg/ml) and BSA-coated plates for 30 (FIG. 2A) or 120 minutes (FIG. 2B) at 37° C. in a 5% CO2 humidified incubator. Normal mouse IgG or anti-β1 integrin blocking IgG was added to measure the effect of β1 integrin in the assay. The number of adherent cells in each 400× visual field was counted. The results are presented as means ±SE of four individual fields. Data are representative of three experiments with two independent clones overexpressing either DDR1a or DDR1b.
To determine the effects of collagen on the functions of DDR1a- and DDR1b-overexpressing THP-1 cells, the cells were incubated on collagen-coated plastic plates. Twenty-four-well plates were coated with 100 μl/well human collagen type I (20 μg/ml) overnight at 4° C., and then with 200 μl/well 10 mg/ml bovine serum albumin (BSA) for 1 hour at 37° C. Cells were plated at the cell density of 1×10^5 cells/ml to the coated wells and were incubated for 30 minutes at 37° C. in 5% CO2 humidified atmosphere. Nonadherent cells were removed by washing three times with PBS. Cells that remained on the coated surface were considered to be adherent, and the number of cells in each 400 field was counted. Results were presented as mean ±SE per 400 field.

p38 MAP kinase = experiment: Phosphorylation of p38 MAP kinase in PMA-treated THP-1 cells, Western blotting
Method: Parental, mock, DDR1a- or DDR1b-overexpressing THP-1 cells were plated at 5×10^6/ml on uncoated tissue culture plates and stimulated with PMA (10 nM) for 24 hours, and then starved in RMPI 1640 without FCS for 10 hours. Subsequently cells were washed three times with PBS, and then incubated in the presence of 50 μg/ml collagen type I for various times.
Ten million cells were lysed on ice for 20 minutes in a buffer containing 50 mM NaCl, 20 mM Tris-HCl, 50 mM sodium fluoride, 30 mM Na4P2O7, 5 mM EGTA, 3 mM sodium orthovanadate, 1% Triton X-100, 1 mg/ml leupeptin, 1 mM PMSF, 1 mg/ml aprotinin, 1 mg/ml pepstatinA and 100 μM sodium orthovanadate treated with H2O2. A lysis buffer containing 150 mM NaCl, 50 mM HEPES, 1% Triton-X 10% glycerol, 1 mM sodium fluoride, 1 mM EDTA, 2 mM sodium orthovanadate, 1 mg/ml leupeptin, 1 mM PMSF, 1 mg/ml aprotinin, 1 mg/ml pepstatinA and 100 μM sodium orthovanadate treated with H2O2, was also used for immunoprecipitation with anti-Shc Ab. The lysates were spun in a microcentrifuge for 20 minutes and the supernatants were collected. […]
Eluted proteins were analyzed on 8% polyacrylamide gels by SDS-PAGE and transferred electrophoretically to nitrocellulose membranes at 150 mA for 1 hour by a semi-dry system. […] To detect phosphorylated or nonphosphorylated p38 MAP kinase or ATF-2, 20 μl of cell lysates were directly mixed with 20 μl of sample buffer and then analyzed.
Downstream signaling molecules that may play a role in the up-regulation of HLA-DR in collagen-activated PMA-treated DDR1b-overexpressing cells were identified in the following manner. […] Phosphorylation of p38 MAP kinase was first detected 30 minutes after collagen activation of DDR1b-overexpressing cells and the level of phosphorylation increased thereafter. […] Phosphorylation of p38 MAP kinase was not detected in DDR1a-overexpressing cells up to 120 minutes. […] Phosphorylation of other members of the MAP kinase family, ERK1, ERK2, and JNK could not be detected in collagen-activated PMA-treated DDR1b-overexpressing cells. […]

Row | Substance | level of DDR1 mRNA expression (DDR1 mRNA) | cells adhered to collagen-coated plates (THP-1 cells) | phosphorylation of p38 MAP kinase (p38 MAP kinase; DDR1a-overexpressing cells, up to 120 minutes) | time phosphorylation of p38 MAP kinase first detected (p38 MAP kinase; DDR1b-overexpressing cells)
1 | TNF-α | further augmented | – | – | –
2 | collagen | – | ~62 % of total cells | not detected | 30 min
